Measurements: patent publication US20230098332A1, “HETEROCYCLIC DERIVATIVES AS TRMP8 ANTAGONISTS” (Givaudan SA, priority 2020, published 2023)

How the values were obtained:
[1] = test system: trained group of panelists; assay: Sensory studies in aqueous solution (trained panelists, cooling in the mouth); type: in vivo, human; conditions: 40 ppm in aqueous solution, 20 mL swilled in the mouth for 60 seconds; for Cooling after 1 hour / Max. cooling: averaged panel score 0-10
Protocol: The compounds as listed below in Table 2 were dissolved at a concentration of 1 wt-% in propylene glycol. These solutions were then dispensed in appropriate quantities into deionized water containing 0.5 wt-% Poloxamer 407 (which is a hydrophilic non-ionic surfactant, e.g., commercially available from SigmaAldrich) and 0.25 wt-% Cremaphor® RH40 (obtained from BASF) as solubilizer, to obtain the desired final concentration of 40 ppm (parts per million) of the respective compound.
A trained group of panelists evaluated the aqueous solutions containing test compound by swilling 20 mL of the solution in the mouth for 60 seconds, followed by spitting, without rinsing the mouth afterwards for the duration of the evaluation. Panelists evaluated and recorded the cooling performance as well as other sensorial and organoleptic attributes at different timepoints over a period of two hours. Cooling performance was rated on a scale from 0 to 10 with 0 being no effect and 10 being freezing. Scores were averaged for all panelists and the cooling intensity qualified as “N” for “none” (score of 0), “L” for “low” (score above 0, up to 1), “M” for “medium” (score above 1, up to 4), “S” for “strong” (score above 4, up to 8) and “E” for “extreme” (score above 8), which are provided in Table 2.

hTRPM8 = molecular target: T1, hTRPM8 (Homo sapiens, UniProt Q7Z2W7); assay: Assay on TRPM8 modulators: calcium imaging (Fluo-4, Flexstation) in HEK293 cell line stably expressing hTRPM8; type: cell-based; conditions: TRPM8 agonist activity, calcium influx, HEK293 stably expressing hTRPM8, sigmoidal dose-response fit
T1 construct: expressed in transfected cells
T1 sequence (Q7Z2W7 whole entry): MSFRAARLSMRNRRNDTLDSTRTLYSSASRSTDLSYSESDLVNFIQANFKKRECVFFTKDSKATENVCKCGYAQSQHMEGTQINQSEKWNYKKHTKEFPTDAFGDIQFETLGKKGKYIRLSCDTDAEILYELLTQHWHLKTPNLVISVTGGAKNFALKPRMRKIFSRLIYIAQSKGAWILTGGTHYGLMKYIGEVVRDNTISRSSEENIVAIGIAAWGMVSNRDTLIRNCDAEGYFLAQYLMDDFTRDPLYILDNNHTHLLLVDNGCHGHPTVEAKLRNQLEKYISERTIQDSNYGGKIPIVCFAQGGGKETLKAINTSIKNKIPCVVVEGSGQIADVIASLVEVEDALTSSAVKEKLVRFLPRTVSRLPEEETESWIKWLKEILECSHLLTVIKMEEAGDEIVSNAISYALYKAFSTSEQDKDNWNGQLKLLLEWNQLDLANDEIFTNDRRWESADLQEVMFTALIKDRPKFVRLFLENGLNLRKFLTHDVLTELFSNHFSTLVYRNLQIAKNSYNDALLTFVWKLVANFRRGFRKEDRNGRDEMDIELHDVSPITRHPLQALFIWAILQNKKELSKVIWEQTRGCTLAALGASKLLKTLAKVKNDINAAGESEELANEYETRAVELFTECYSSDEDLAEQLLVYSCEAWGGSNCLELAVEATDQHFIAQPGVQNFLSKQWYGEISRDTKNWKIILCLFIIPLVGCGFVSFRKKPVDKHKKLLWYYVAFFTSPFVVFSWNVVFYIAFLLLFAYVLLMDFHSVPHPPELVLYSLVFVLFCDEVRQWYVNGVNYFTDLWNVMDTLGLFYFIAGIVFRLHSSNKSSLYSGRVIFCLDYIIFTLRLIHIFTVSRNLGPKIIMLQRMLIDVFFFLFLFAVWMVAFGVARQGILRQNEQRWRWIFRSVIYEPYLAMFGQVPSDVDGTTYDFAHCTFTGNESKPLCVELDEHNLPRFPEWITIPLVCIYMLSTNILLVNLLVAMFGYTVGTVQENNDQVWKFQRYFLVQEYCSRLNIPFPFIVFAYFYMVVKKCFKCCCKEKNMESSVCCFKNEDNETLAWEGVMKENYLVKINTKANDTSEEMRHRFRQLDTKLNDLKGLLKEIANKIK
How it was run: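 Calcium influx monitored by Fluo-4 (2.7 μM with […] probenecid, 1 h 37 °C loading) in HEK293 cells stably expressing hTRPM8, in HEPES buffer pH 7.4 with 2 mM CaCl2. Fluorescence read 15 s before and 105 s after adding serial compound dilutions. Maximal activation relative to solvent and 31.6 μM menthol; EC50 from sigmoidal fit.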

[2] = test system: trained group of panelists; assay: Sensory studies in model dentifrice (trained panelists, cooling in the mouth); type: in vivo, human; conditions: 100 ppm in model unflavored dentifrice, brushing with 1 g for 60 seconds; for Cooling after 1 hour / Max. cooling: averaged panel score 0-10
Protocol: The compounds listed in Table 3 were dissolved at a concentration of 1 wt-% in propylene glycol. These solutions were then dispersed in appropriate quantities to obtain the desired final concentration of 100 ppm (parts per million) of the test compound into a model, unflavored dentifrice, the formula of which is given below (ingredients obtained from the suppliers respectively indicated in parenthesis).
A trained group of panelists evaluated the dentifrice containing a compound of formula (I), by brushing their teeth with 1 g of the dentifrice using a toothbrush for 60 seconds, followed by spitting, without rinsing the mouth afterwards for the duration of the evaluation. Panelists evaluated and recorded the cooling performance as well as other sensorial and organoleptic attributes at different timepoints over a period of two hours. Cooling performance was rated on a scale from 0 to 10 with 0 being no effect and 10 being freezing. Scores were averaged for all panelists and the cooling intensity qualified as “N” for “none” (score of 0), “L” for “low” (score above 0, up to 1), “M” for “medium” (score above 1, up to 4), “S” for “strong” (score above 4, up to 8) and “E” for “extreme” (score above 8), which are summarized below in Table 3.

Row | SMILES | Time of max. cooling [1] [min] | Cooling after 1 hour [1] | Max. cooling [1] | EC50 (hTRPM8) [nM] | Time of max. cooling [2] [min] | Cooling after 1 hour [2] | Max. cooling [2]
1 | Cc1ccc(OCCN2CCN(C)CC2)c(Cc2ccccc2)c1 [compound 77, 1-(2-(2-benzyl-4-methylphenoxy)ethyl)-4-methylpiperazine] | 10 | M (“M” for “medium” (score above 1, up to 4)) | M (“M” for “medium” (score above 1, up to 4)) | 300 to 1000 | – | – | –
2 | Cc1cc(C)c(CCCN2CCOCC2)c(Oc2ccccc2C#N)c1 [compound 125, 2-(3,5-dimethyl-2-(3-morpholinopropyl)phenoxy)benzonitrile] | 10 | M (“M” for “medium” (score above 1, up to 4)) | M (“M” for “medium” (score above 1, up to 4)) | < 50 | 30 | M (“M” for “medium” (score above 1, up to 4)) | M (“M” for “medium” (score above 1, up to 4))
3 | Cc1ccc(OCCN2CCN(C)CC2)c(Cc2ccccc2)c1.Cl [compound 85, 1-(2-(2-benzyl-4-methylphenoxy)ethyl)-4-methylpiperazine hydrochloride] | 20 | M (“M” for “medium” (score above 1, up to 4)) | S (“S” for “strong” (score above 4, up to 8)) | – | 20 | L (“L” for “low” (score above 0, up to 1)) | L (“L” for “low” (score above 0, up to 1))
4 | Cc1ccc(OCCN2CC(C)N(C)C(C)C2)c(Cc2ccccc2)c1 (stereo not drawn) [compound 158, 4-(2-(2-benzyl-4-methylphenoxy)ethyl)-1,2,6-trimethylpiperazine] | 30 | M (“M” for “medium” (score above 1, up to 4)) | M (“M” for “medium” (score above 1, up to 4)) | 300 to 1000 | – | – | –
5 | Cc1cc(C)c(OCCN2CCOCC2)c(Cc2c(F)cccc2F)c1 [compound 149, 4-(2-(2-(2,6-difluorobenzyl)-4,6-dimethylphenoxy)ethyl)morpholine] | 20 | M (“M” for “medium” (score above 1, up to 4)) | S (“S” for “strong” (score above 4, up to 8)) | 50 to 300 | 30 | M (“M” for “medium” (score above 1, up to 4)) | M (“M” for “medium” (score above 1, up to 4))
6 | Cc1ccc(OCCN2CCN(C)CC2)c(Cc2ccccc2C#N)c1.Cl.Cl [compound 130, 2-(5-methyl-2-(2-(4-methylpiperazin-1-yl)ethoxy)benzyl)benzonitrile dihydrochloride] | 30 | S (“S” for “strong” (score above 4, up to 8)) | S (“S” for “strong” (score above 4, up to 8)) | – | 30 | M (“M” for “medium” (score above 1, up to 4)) | M (“M” for “medium” (score above 1, up to 4))
7 | Cc1cc(C)c(OCCN2CCN(C)CC2)c(Cc2ccccc2C#N)c1.Cl [compound 118, 2-(3,5-dimethyl-2-(2-(4-methylpiperazin-1-yl)ethoxy)benzyl)benzonitrile hydrochloride] | 20 | S (“S” for “strong” (score above 4, up to 8)) | S (“S” for “strong” (score above 4, up to 8)) | < 50 | 30 | M (“M” for “medium” (score above 1, up to 4)) | M (“M” for “medium” (score above 1, up to 4))
8 | Cc1cc(C)c(OCCN2CCOCC2)c(Cc2ccccc2F)c1 [compound 153, 4-(2-(2-(2-fluorobenzyl)-4,6-dimethylphenoxy)ethyl)morpholine] | 20 | M (“M” for “medium” (score above 1, up to 4)) | M (“M” for “medium” (score above 1, up to 4)) | 50 to 300 | 5 | L (“L” for “low” (score above 0, up to 1)) | M (“M” for “medium” (score above 1, up to 4))
9 | Cc1ccc(N(C)CCN2CCN(C)CC2)c(Cc2ccccc2)c1 [compound 137, 2-benzyl-N,4-dimethyl-N-(2-(4-methylpiperazin-1-yl)ethyl)aniline] | 10 | M (“M” for “medium” (score above 1, up to 4)) | S (“S” for “strong” (score above 4, up to 8)) | 50 to 300 | 10 | L (“L” for “low” (score above 0, up to 1)) | M (“M” for “medium” (score above 1, up to 4))
10 | Cc1cc(C)c(OCCN2CCN(C)CC2)c(Cc2ccccc2)c1.Cl.Cl [compound 71, 1-(2-(2-benzyl-4,6-dimethylphenoxy)ethyl)-4-methylpiperazine dihydrochloride] | 20 | M (“M” for “medium” (score above 1, up to 4)) | S (“S” for “strong” (score above 4, up to 8)) | – | 10 | L (“L” for “low” (score above 0, up to 1)) | M (“M” for “medium” (score above 1, up to 4))
11 | Cc1cc(C)c(OCCN2CCOCC2)c(Cc2ccccc2C#N)c1 [compound 122, 2-(3,5-dimethyl-2-(2-morpholinoethoxy)benzyl)benzonitrile] | 10 | M (“M” for “medium” (score above 1, up to 4)) | S (“S” for “strong” (score above 4, up to 8)) | < 50 | 10 | M (“M” for “medium” (score above 1, up to 4)) | S (“S” for “strong” (score above 4, up to 8))
12 | Cc1ccc(OCCN2CCOCC2)c(Cc2ccccc2)c1.Cl [compound 159, 4-(2-(2-benzyl-4-methylphenoxy)ethyl)morpholine hydrochloride] | 5 | L (“L” for “low” (score above 0, up to 1)) | M (“M” for “medium” (score above 1, up to 4)) | 1000 to 35000 | – | – | –
13 | Cc1cc(C)c(OCCC2CCOCC2)c(Cc2ccccc2C#N)c1 [compound 119, 2-(3,5-dimethyl-2-(2-(tetrahydro-2H-pyran-4-yl)ethoxy)benzyl)benzonitrile] | 10 | L (“L” for “low” (score above 0, up to 1)) | M (“M” for “medium” (score above 1, up to 4)) | 50 to 300 | – | – | –
14 | Cc1ccc(CCCN2CCN(C)CC2)c(Cc2ccccc2)c1 [compound 100, 1-(3-(2-benzyl-4-methylphenyl)propyl)-4-methylpiperazine] | 10 | M (“M” for “medium” (score above 1, up to 4)) | M (“M” for “medium” (score above 1, up to 4)) | 300 to 1000 | – | – | –
15 | Cc1ccc(OC(C)CN2CCN(C)CC2)c(Cc2ccccc2)c1 (stereo not drawn) [compound 90, 1-(2-(2-benzyl-4-methylphenoxy)propyl)-4-methylpiperazine] | 10 | M (“M” for “medium” (score above 1, up to 4)) | M (“M” for “medium” (score above 1, up to 4)) | 300 to 1000 | – | – | –
